Measurements: patent US20260325504A1, “Genetically Engineered Human Pituitary Corticotroph Tumor Organoids Exhibit Divergent Responses to Selective Glucocorticoid Receptor Modulators” (Corcept Therapeutics Incorporated, priority 2022, published 2026)
“Also recorded” adds a separate entry of the source.

What was measured:
[1] = tested on: SSTR5; assay: Differential expression of SSTR5 (qRT-PCR) in iPSC generated pituitary organoids; format: cell-based, human; details: for SSTR5 induction relative to SSTR2: PitNET organoids, summary; for expression of SSTR5: 500 nM, vs vehicle
Procedure: (§1) Sonic Hedgehog (SHH) was withdrawn from the organoid growth media 16 hours prior to treatment. The experimental treatment groups included: vehicle (Veh), mifepristone (500 nM, Selleckchem S2606), GANT61 (5 μM, Stemcell Technologies 73692), ketoconazole (Keto, 10 μM, Selleckchem S1353), pasireotide (Pas, 100 nM, Target Mol TP2207-SB001), octreotide (Oct, 100 nM, Selleckchem P1017), mifepristone plus GANT61, mifepristone plus Keto, mifepristone plus Pas, relacorilant (500 nM, Corcept Therapeutics CORT125134), relacorilant plus Pas, relacorilant plus Oct, or dexamethasone (Dexa, 100 nM, SIGMA S4902). In the combination treatments, cultures were pretreated with the GANT61, Keto, Pas or Oct for 2 hours prior to treatment with mifepristone or Rela. PitNET tissue derived organoids hPITO36, hPITO37, hPITO38, hPITO39, and hPITO40 were treated with the following experimental conditions: Vehicle (1), pasireotide (2), relacorilant (3), relacorilant & pasireotide (4), mifepristone (5), mifepristone & pasireotide (6). The IC50 values used for each hPITO line for each drug were determined based on dose responses (FIG. 12). All organoid cultures were treated for 48 hours prior to analysis.
(§2) RNA was extracted from PitNET tissue or iPSC generated organoids using TRI Reagent® (Molecular Research Center Inc TR118) and the High Capacity cDNA Reverse Transcription Kit (Applied Biosystems, Foster City, CA) was used for cDNA synthesis of RNA following the recommended protocol. For each sample, 60 ng RNA was reverse transcribed to yield approximately […] total cDNA that was then used for the qRT-PCR. Pre-designed real-time polymerase chain reaction assays were purchased for the following genes: TPit (Thermo Fisher Scientific 4331182 Hs00193027), SF1 (Thermo Fisher Scientific 4331182 Hs00610436), SSTR2 (Thermo Fisher Scientific 4331182 Hs00265624_s1), SSTR5 (Thermo Fisher Scientific 4331182 Hs00990407_s1), POMC (Thermo Fisher Scientific 4331182 Hs01596743_ml), hPRT (Thermo Fisher Scientific 4331182 Hs02800695_ml), and FKBP5 (Thermo Fisher Scientific 4331182 Hs01561006_m1). Polymerase chain reaction amplifications were performed in a total volume of 20 μL containing 20× TaqMan Expression Assay primers, 2× TaqMan Universal Master Mix (Applied Biosystems, TaqMan® Gene Expression Systems), and cDNA template. Each polymerase chain reaction amplification was performed in triplicate wells in a StepOne Real-Time PCR System (Applied Biosystems) by using the following conditions: 500C 2 minutes, 95° C. 10 minutes, 95° C. 15 seconds (denature) and 60° C. 1 minute (anneal/extend) for 40 cycles. Fold change was calculated as the following: (Ct-Ct high)=n target, 2ntarget/2nHPRT=fold change where Ct=threshold cycle. The results were expressed as average fold change in or differential gene expression relative to control, with HPRT used as an internal control according to Livak and Schmittgen.

[2] = tested on: ACTH; assay: Spectral flow cytometry, ACTH positive cells, iPSCUSP48MV organoids; format: cell-based, human; details: 48 h, FIGS. 8C, G
Procedure: as §1
The multicolor flow cytometry antibody panel was designed using the Cytek® Full Spectrum Viewer online tool to calculate the similarity index. Organoids were harvested in cold Serum-Free Defined Medium media and incubated with Zombie (BioLegend 423107, 1:100) for 15 minutes in the dark at room temperature, followed by incubation with fluorochrome-conjugated/unconjugated primary surface or cytoplasmic antibodies (Table 6) at 4° C. for 30 minutes. Cells were then washed with Cell Staining Buffer (BioLegend 420-201) and incubated at 4° C. for 30 minutes with secondary antibodies (Table 6). Cells were fixed using Cytofix/Cytoperm™ Fixation/Permeabilization Solution (BD Biosciences 554714) and washed with Fixation/Permeabilization wash buffer according to the recommended protocol. […] Data was acquired using the Cytek® Aurora, analyzed using Cytobank Premium software (Beckman Coulter).

[3] = tested on: iPSC^USP48MV organoids; assay: Spectral flow cytometry, Zombie positive cells (cell death), iPSCUSP48MV organoids; format: cell-based, human; details: 48 h, FIGS. 8D
Procedure: as §1, with “All organoid cultures were treated for 48 hours prior to analysis.” left out
The multicolor flow cytometry antibody panel was designed using the Cytek® Full Spectrum Viewer online tool to calculate the similarity index. […] Data was acquired using the Cytek® Aurora, analyzed using Cytobank Premium software (Beckman Coulter).

[4] = tested on: FKBP5; assay: FKBP5 expression (GR target gene, qRT-PCR) in PitNET organoids; format: cell-based, human; details: 48 h, FIG. 16A-C; for differential expression of FKBP5: PitNET organoids (iPSCctrl, iPSCUSP48MV, iPSCUSP8)
Procedure: as §1
as §2, with “10 minutes, 95° C. 15 seconds (denature) and 60° C. 1 minute (anneal/extend) for 40 cycles.” left out

[5] = tested on: patients with Cushing's syndrome; details: cited from earlier work; for tumor regression / tumor growth: CD patients, pituitary macroadenomas/corticotroph tumors; for ACTH levels in patients / cortisol levels in patients: patients with Cushing's syndrome/CD

Row | Compound | SSTR5 induction relative to SSTR2 [1] | SSTR5 induction relative to SSTR2 ([1]; listed as Relacorilant) | induction in SSTR5 expression, relacorilant compared to mifepristone ([1]; iPSC organoids, 500 nM each, 48 h, FIG. 5B) | expression of SSTR5 ([1]; iPSC organoids, 48 h) | ACTH positive cells / ACTH expression [2] | ACTH positive cells / ACTH expression ([2]; listed as Relacorilant) | cell death (Zombie positive cells) [3] | differential expression of FKBP5 [4] | magnitude of FKBP5 inhibition, compared to mifepristone ([4]; PitNET organoids) | tumor regression / tumor growth [5] | tumor regression ([5]; macroadenomas, treated for three months, imaging of the pituitary gland) | ACTH levels in patients [5] | cortisol levels in patients [5] | effects of excess cortisol on hypertension and insulin resistance ([5]; phase 2 study, patients with Cushing's syndrome) | differential expression of SSTR5 ([1]; iPSCctrl organoids, compound alone, 48 h, FIG. 5C, D) | hyperglycemia secondary to hypercortisolism ([5]; patients with CD) | side effects ([5]; patients)
1 | Cn1cc(S(=O)(=O)N2CCC3=Cc4c(cnn4-c4ccc(F)cc4)C[C@]3(C(=O)c3cc(C(F)(F)F)ccn3)C2)cn1 [relacorilant, (R)-(1-(4-fluorophenyl)-6-((1-methyl-1H-pyrazol-4-yl)sulfonyl)-4,4a,5,6,7,8-hexahydro-1H-pyrazolo[3,4-g]isoquinolin-4a-yl) (4-(trifluoromethyl)pyridin-2-yl) methanone] | predominantly induced SSTR5 expression; also recorded: greater induction of SSTR5 expression as compared to SSTR2 | predominantly induces SSTR5 | induced greater SSTR5 expression | significant induction; also recorded: significantly induced the expression | did not significantly increase the number of ACTH-positive cells | did not significantly increase ACTH | significant increase in Zombie positive cells | significantly reduced | significantly greater | induce tumor regression in some CD patients | tumor regression in two patients | did not significantly raise ACTH or cortisol levels | did not significantly raise ACTH or cortisol levels | reversed the effects of excess cortisol on hypertension and insulin resistance |  |  | 
2 | CC#C[C@]1(O)CC[C@H]2[C@@H]3CCC4=CC(=O)CCC4=C3[C@@H](c3ccc(N(C)C)cc3)C[C@@]21C [mifepristone, 11β-(4-dimethylaminophenyl)-17ß-hydroxy-17α-(1-propynyl)-estra-4,9-dien-3-one] |  |  |  | significant induction; also recorded: significantly induced the expression | significant induction in the number of ACTH positive cells; also recorded: significantly increased the ACTH expression levels |  | not observed | significantly reduced |  | not been observed; also recorded: without tumor growth |  | increases ACTH; also recorded: raises ACTH (and thus cortisol) levels | concomitant increase in cortisol secretion; also recorded: raises ACTH (and thus cortisol) levels |  | significantly induced | significantly improves hyperglycemia | significant side effects in some patients; also recorded: endometrial thickening and vaginal bleeding
